This assay concerns the target CDK9 (Homo sapiens, UniProt P50750). The experiment in a line: in vitro kinase assay. The format is biochemical.

Chain of CDK9 (P50750 whole entry): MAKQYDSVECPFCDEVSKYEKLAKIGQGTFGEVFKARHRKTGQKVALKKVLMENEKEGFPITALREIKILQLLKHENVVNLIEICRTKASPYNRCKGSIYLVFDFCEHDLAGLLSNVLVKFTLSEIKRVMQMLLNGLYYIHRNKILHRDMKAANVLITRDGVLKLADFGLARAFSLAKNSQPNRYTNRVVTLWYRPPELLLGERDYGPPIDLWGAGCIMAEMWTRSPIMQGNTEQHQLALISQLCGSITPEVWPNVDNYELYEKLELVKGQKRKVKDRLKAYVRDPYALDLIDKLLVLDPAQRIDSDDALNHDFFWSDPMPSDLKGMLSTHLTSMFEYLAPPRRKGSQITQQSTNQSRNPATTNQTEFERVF

On to `Cc1cc(O)c(-c2ccc([C@@H](C)CN(C)C)cc2)c2c1[nH]c(=O)c1sccc12` [OTS964], for which the IC50 (in general, the point on the concentration scale where inhibition reaches its midpoint) came out at 650 nM.

For the origin of these results see publication PMC12324462 (bioRxiv, 2025).
